# Measured values as given in the supplement of paper PMC10307832.
# What was measured:
# Test in all cases: relative viability (nuclei count vs DMSO), 5 days (fraction); higher = more cells survive
# Bicalutamide + Foretinib = compound: CC(O)(CS(=O)(=O)c1ccc(F)cc1)C(=O)Nc1ccc(C#N)c(C(F)(F)F)c1 [Bicalutamide] + COc1cc2c(Oc3ccc(NC(=O)C4(C(=O)Nc5ccc(F)cc5)CC4)cc3F)ccnc2cc1OCCCN1CCOCC1 [Foretinib] (partner 0.25 µM)
# In short: (§1)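 Lung cancer cell lines, seeded in 1536-well plates, were treated the following day by pin tool with a single drug or with five library-drug doses (not always all listed) in √10 steps on top of a fixed anchor-drug dose. Cells were fixed and nuclei stained in one step after 5 days, and nuclei were counted. Relative viability is the nuclei count for treated wells divided by that for vehicle wells, reported as medians of duplicate plates.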
# [1] = compound: CC(O)(CS(=O)(=O)c1ccc(F)cc1)C(=O)Nc1ccc(C#N)c(C(F)(F)F)c1 [Bicalutamide] + Nc1nc2[nH]cc(CCc3ccc(C(=O)N[C@@H](CCC(=O)O)C(=O)O)cc3)c2c(=O)[nH]1 [Pemetrexed] (partner 0.2 µM)
# In short: as §1
# [2] = compound: C(C(=O)C(=O)O)Br [Bromopyruvate] + CS(=O)(=O)N1CCN(Cc2cc3nc(-c4cccc5[nH]ncc45)nc(N4CCOCC4)c3s2)CC1 [Pictilisib] (partner 1 µM)
# In short: as §1
# [3] = compound: CC(O)(CS(=O)(=O)c1ccc(F)cc1)C(=O)Nc1ccc(C#N)c(C(F)(F)F)c1 [Bicalutamide] + N=C(N)NC(=N)NCCc1ccccc1 [Phenformin] (partner 250 µM)
# In short: as §1
cell line,measurement,setting,value
UMC-11,relative viability,Bicalutamide + Foretinib; first compound 0.08 µM,1.11
same,relative viability,Bicalutamide + Foretinib; first compound 0.253 µM,0.966
same,relative viability,Bicalutamide + Foretinib; first compound 0.8 µM,1.08
same,relative viability,Bicalutamide + Foretinib; first compound 2.53 µM,1.05
same,relative viability,[1]; first compound 0.08 µM,0.83
same,relative viability,[1]; first compound 0.253 µM,0.732
same,relative viability,[1]; first compound 0.8 µM,0.829
same,relative viability,[1]; first compound 2.53 µM,0.756
same,relative viability,[2]; first compound 1 µM,0.797
same,relative viability,[2]; first compound 3.162 µM,0.797
same,relative viability,[2]; first compound 10 µM,0.956
same,relative viability,[2]; first compound 31.62 µM,0.78
same,relative viability,[2]; first compound 100 µM,0.78
same,relative viability,[3]; first compound 0.08 µM,0.35
same,relative viability,[3]; first compound 0.253 µM,0.319
same,relative viability,[3]; first compound 0.8 µM,0.372
same,relative viability,[3]; first compound 2.53 µM,0.302
